Measured values from patent US7371877B2, “Glycerol ester derivative” (FUJIFILM Corporation, priority 2002, dated 2008).
One block for each compound: values may come before it.

How the values were obtained:
[1] = J. Med. Chem., 25, 1500 (1982); cited from earlier work
ICR male mice = experiment: Toxicity test by continuous administration for three days in mice (MTD); assay type: in vivo
Method: Six-week old ICR male mice (Charles River Japan) were purchased, and after quarantine for 1 week, acclimatized in a clean animal cage (air-conditioning: HEPA filter of class 1000, room temperature: 20 to 24° C., humidity: 35 to 60%). Then, in order to obtain an MTD value, a liposome preparation was administered from the caudal vein. The liposome preparation was administered by using physiological saline (Hikari Pharmaceutical) or a glucose solution (Otsuka Pharmaceutical) as a solvent. On the basis of the MTD value obtained, the liposome preparation was administered from the caudal vein every three consecutive days in an amount corresponding to ½ of the MTD value (n=3). The symptoms were observed up to 6 hours after each administration, and autopsy was performed after completion of the administration to examine major organs. As a result, no abnormality was recognized. […]

S9 degradation test = assay type: in vitro ADME, rats; conditions: rat liver S9 Mix, 5 μg/ml, 37° C., HPLC
Method: Six-week old male SD rats (Charles River Japan) were purchased and acclimatized for 1 week. After the acclimatization for 1 week, the rats were weighed and bled by decapitation. The liver was extracted and washed three times with chilled 0.15 M KCl. After the washing, wet weight of the liver was determined, and the liver was added with the three-times weight of chilled 0.15 M KCl and placed in a homogenizer. The liver was homogenized, and the homogenate was centrifuged with cooling at 9000 g for 10 minutes. The supernatant obtained was designated S9 and stored below −80° C.
The stored S9 was thawed in running water. The thawed S9 (0.1 ml) was added with 0.4 M MgCl2 (0.02 ml), 1.65 M KCl (0.02 ml) and 0.2 M Na phosphate buffer (pH 7.4, 0.5 ml), added with glucose-6-phosphate (Oriental Yeast), NADPH (Oriental Yeast) and NADH (Oriental Yeast) so as to give a concentration of 4 μM, and added with distilled water to give a total volume of 1 ml (this solution is referred to as “S9 Mix”). S9 Mix (0.1 ml) was added with a test substance so as to give a concentration of 5 μg/ml and shaken at 37° C. under reciprocal movement. The weight of the test substance (unchanged substance) with passage of time in the S9 Mix was measured by HPLC. The test substance was dissolved in dimethyl sulfoxide (Wako Pure Chemical Industry) beforehand. The results are shown as percentage values of the amount of the unchanged substance after 30 minutes based on the amount of the unchanged substance immediately after the addition to S9 Mix, which is taken as 100%. […]

Wistar rats = experiment: Neurotoxicity test in Wistar rats; assay type: in vivo; design: key to Neurotoxicity (+: present, −: absent): +: present; −: absent
Method: Six-week old male Wistar rats (Charles River Japan) were purchased, and after quarantine for 1 week, acclimatized in a clean animal cage (air-conditioning: HEPA filter of class 1000, room temperature: 20 to 24° C., humidity: 35 to 60%). […]. The liposome preparation was administered by using physiological saline (Hikari Pharmaceutical) or a glucose solution (Otsuka Pharmaceutical) as a solvent.
In the same manner as in Test Example 4, the neurotoxicity test using a Wistar rat was performed.

[2] = test system: vascular smooth muscle cells; experiment: Uptake amount of iodine atoms by vascular smooth muscle cells (mixed culture with macrophage); assay type: cell-based; conditions: liposome PC 50 nmol + PS 50 nmol + compound 75 nmol; cultured at 37° C. under 5% CO2 for 24 hours
Method: Dipalmitoyl-PC (Funakoshi, No. 1201-41-0225) and dipalmitoyl-PS (Funakoshi, No. 1201-42-0237) at the ratio shown below were dissolved in chloroform together with each of the iodine compounds of the present invention in an eggplant-shaped flask according to the method described in J. Med. Chem., 25 (12), 1500 (1982) to form a uniform solution. Then, the solvent was evaporated under reduced pressure to form a thin membrane on the bottom of the flask bottom. This thin membrane was dried in vacuum, then added with an appropriate amount of 0.9% physiological saline (Hikari Pharmaceutical, No. 512) and subjected to ultrasonication (No. 3542 probe type oscillator, Branson, 0.1 mW) for 5 minutes to obtain a uniform liposome dispersion. The diameters of the liposomes in the resulting dispersion were measured by using WBC analyzer (A-1042, Nihon Kohden). […] The liposome preparations mentioned below, which were produced by the above method, were each added to a mixed culture system of vascular smooth muscle cells and macrophage described in International Publication WO 01/82977. The cells were cultured at 37° C. under 5% CO2 for 24 hours, and the amounts of the iodine compounds taken up into the vascular smooth muscle cells were each quantified.
In the same manner as in Test Example 1, liposome preparations containing dipalmitoyl-PC (Funakoshi, No. 1201-41-0225) and dipalmitoyl-PS (Funakoshi, No. 1201-42-0237) at the ratio shown below were prepared. […] The liposome preparations produced by the above method were each added to a mixed culture system of vascular smooth muscle cells and macrophage described in International Publication WO 01/82977. The cells were cultured at 37° C. under 5% CO2 for 24 hours, and the amounts of the iodine compounds taken up into the vascular smooth muscle cells were each quantified.

[3] = test system: arteriosclerotic lesions in rat aortas; experiment: X-ray radiography of rat arteriosclerotic lesion; assay type: in vivo; conditions: liposome preparation, 200 mg/kg from the cervical vein
Method: According to the method described in Invest. Radiol., 18, 275 (1985), arteriosclerotic lesions were formed in rat aortas. The liposome preparation of 1A-4-1 prepared above was carefully administered to the rats with the formed arteriosclerotic lesions were formed from the cervical vein in an amount of 200 mg/kg.
In the same manner as in Test Example 2, the liposome preparation of 1B-1-3 prepared above was carefully administered from the cervical vein to the rats with the formed arteriosclerotic lesions in an amount of 200 mg/kg.

[4] = liposome preparation administered from the caudal vein, ICR male mice
[5] = liposome preparation from the caudal vein, 1/2 of the MTD value, after pentobarbital, observed up to 4 hours

Compound: CCC(Cc1c(I)cc(I)c(N)c1I)C(=O)OC1CCC2(C)C(=CCC3C2CCC2(C)C(C(C)CCCC(C)C)CCC32)C1 (stereo not shown) [Cholesterol iopanoate]
Accumulation in the liver [1]: known to accumulate in the liver of a living body

Compound: O=C(CCCCCCCCCCOc1c(I)cc(I)cc1I)OCC(COC(=O)CCCCCCCCCCOc1c(I)cc(I)cc1I)OC(=O)CN1CCOCC1 [Compound 1A-1-3]
MTD (ICR male mice; [4]): 800 mg/kg
amount of the unchanged substance after 30 minutes based on the amount immediately after the addition to S9 Mix (100%) (S9 degradation test): 1A-1-3: 63%
Neurotoxicity (+: present, −: absent) (Wistar rats; rat, in vivo): (−)
Uptake amount [2]: 49.8 × 10^−3 nmol/μg protein

amount of the unchanged substance after 30 minutes based on the amount immediately after the addition to S9 Mix (100%) (S9 degradation test): 1A-3-1: 58%
Compound: O=C(CCCCCCCCCCOc1c(I)cc(I)cc1I)OCC(COC(=O)CCCCCCCCCCOc1c(I)cc(I)cc1I)OC(=O)CCN1CCOCC1 [Compound 1A-3-1]

Compound: O=C(CCCCCCCCCCOc1c(I)cc(I)cc1I)OCC(COC(=O)CCCCCCCCCCOc1c(I)cc(I)cc1I)OC(=O)CCCN1CCOCC1 [Compound 1A-3-2]
MTD (ICR male mice; [4]): 800 mg/kg
amount of the unchanged substance after 30 minutes based on the amount immediately after the addition to S9 Mix (100%) (S9 degradation test): 1A-3-2: 60%

Compound: O=C(CCCCCCCCCCOc1c(I)cc(I)cc1I)OCC(COC(=O)CCCCCCCCCCOc1c(I)cc(I)cc1I)OC(=O)CCCCN1CCOCC1 [Compound 1A-3-3]
MTD (ICR male mice; [4]): 1000 mg/kg
amount of the unchanged substance after 30 minutes based on the amount immediately after the addition to S9 Mix (100%) (S9 degradation test): 1A-3-3: 64%
Neurotoxicity (+: present, −: absent) (Wistar rats; rat, in vivo): (−)

Compound: O=C(CCCCCCCCCCOc1c(I)cc(I)cc1I)OCC(COC(=O)CCCCCCCCCCOc1c(I)cc(I)cc1I)OC(=O)CCCCCN1CCOCC1 [Compound 1A-3-4]
MTD (ICR male mice; [4]): 1000 mg/kg
amount of the unchanged substance after 30 minutes based on the amount immediately after the addition to S9 Mix (100%) (S9 degradation test): 1A-3-4: 63%

Compound: O=C(CCCCCCCCCCOc1c(I)cc(I)cc1I)OCC(COC(=O)CCCCCCCCCCOc1c(I)cc(I)cc1I)OC(=O)CCC(=O)N1CCOCC1 [Compound 1A-4-1]
MTD (ICR male mice; [4]): 1000 mg/kg
amount of the unchanged substance after 30 minutes based on the amount immediately after the addition to S9 Mix (100%) (S9 degradation test): 1A-4-1: 59%
X-ray radiography images of arteriosclerotic lesions ([3]; ten minutes after the administration): clearly contrasted images of the arteriosclerotic lesions were obtained
Neurotoxicity (+: present, −: absent) (Wistar rats; rat, in vivo): (−)
Uptake amount [2]: 31.4 × 10^−3 nmol/μg protein

amount of the unchanged substance after 30 minutes based on the amount immediately after the addition to S9 Mix (100%) (S9 degradation test): 1A-4-2: 10%
Compound: NC(=O)CCC(=O)OC(COC(=O)CCCCCCCCCCOc1c(I)cc(I)cc1I)COC(=O)CCCCCCCCCCOc1c(I)cc(I)cc1I [Compound 1A-4-2]

amount of the unchanged substance after 30 minutes based on the amount immediately after the addition to S9 Mix (100%) (S9 degradation test): 1A-4-3: 5%
Compound: CN(C)C(=O)CCC(=O)OC(COC(=O)CCCCCCCCCCOc1c(I)cc(I)cc1I)COC(=O)CCCCCCCCCCOc1c(I)cc(I)cc1I [Compound 1A-4-3]

Compound: O=C(O)CCC(=O)OC(COC(=O)CCCCCCCCCCOc1c(I)cc(I)cc1I)COC(=O)CCCCCCCCCCOc1c(I)cc(I)cc1I [Compound 1A-4-4]
MTD (ICR male mice; mouse, in vivo): 800 mg/kg
amount of the unchanged substance after 30 minutes based on the amount immediately after the addition to S9 Mix (100%) (S9 degradation test): 1A-4-4: 24%
Neurotoxicity (+: present, −: absent) (Wistar rats; [5]): (−)

Compound: CCOCCOCCOCCOC(=O)CCC(=O)OC(COC(=O)CCCCCCCCCCOc1c(I)cc(I)cc1I)COC(=O)CCCCCCCCCCOc1c(I)cc(I)cc1I [Compound 1A-4-5]
MTD (ICR male mice; mouse, in vivo): 800 mg/kg
amount of the unchanged substance after 30 minutes based on the amount immediately after the addition to S9 Mix (100%) (S9 degradation test): 1A-4-5: 38%
Neurotoxicity (+: present, −: absent) (Wistar rats; [5]): (−)

Compound: O=C(CCCCCCCCCCOc1c(I)cc(I)cc1I)OCC(COC(=O)CCCCCCCCCCOc1c(I)cc(I)cc1I)OCC(=O)N1CCOCC1 [Compound 1A-5-1]
MTD (ICR male mice; [4]): 800 mg/kg
amount of the unchanged substance after 30 minutes based on the amount immediately after the addition to S9 Mix (100%) (S9 degradation test): 1A-5-1: 9%
Neurotoxicity (+: present, −: absent) (Wistar rats; rat, in vivo): (−)

amount of the unchanged substance after 30 minutes based on the amount immediately after the addition to S9 Mix (100%) (S9 degradation test): 1A-5-2: 60%
Compound: NC(=O)COC(COC(=O)CCCCCCCCCCOc1c(I)cc(I)cc1I)COC(=O)CCCCCCCCCCOc1c(I)cc(I)cc1I [Compound 1A-5-2]

amount of the unchanged substance after 30 minutes based on the amount immediately after the addition to S9 Mix (100%) (S9 degradation test): 1A-5-3: 52%
Compound: CN(C)C(=O)COC(COC(=O)CCCCCCCCCCOc1c(I)cc(I)cc1I)COC(=O)CCCCCCCCCCOc1c(I)cc(I)cc1I [Compound 1A-5-3]

Compound: O=C(O)COC(COC(=O)CCCCCCCCCCOc1c(I)cc(I)cc1I)COC(=O)CCCCCCCCCCOc1c(I)cc(I)cc1I [Compound 1A-5-4]
MTD (ICR male mice; mouse, in vivo): 800 mg/kg
amount of the unchanged substance after 30 minutes based on the amount immediately after the addition to S9 Mix (100%) (S9 degradation test): 1A-5-4: 20%
Neurotoxicity (+: present, −: absent) (Wistar rats; [5]): (−)

amount of the unchanged substance after 30 minutes based on the amount immediately after the addition to S9 Mix (100%) (S9 degradation test): 1A-6-3: 60%
Compound: CN(C)CC(=O)OC(COC(=O)CCCCCCCCCCOc1c(I)cc(I)cc1I)COC(=O)CCCCCCCCCCOc1c(I)cc(I)cc1I [Compound 1A-6-3]

Compound: O=C(CCCCCCCCCCOc1c(I)cc(I)cc1I)OCC(COC(=O)CCCCCCCCCCOc1c(I)cc(I)cc1I)OC(=O)COC(CO)CO [Compound 1A-6-9]
MTD (ICR male mice; [4]): 800 mg/kg
amount of the unchanged substance after 30 minutes based on the amount immediately after the addition to S9 Mix (100%) (S9 degradation test): 1A-6-9: 13%

amount of the unchanged substance after 30 minutes based on the amount immediately after the addition to S9 Mix (100%) (S9 degradation test): 1A-7-3: 5%
Compound: CCOCCOCCOCCOC(COC(=O)CCCCCCCCCCOc1c(I)cc(I)cc1I)COC(=O)CCCCCCCCCCOc1c(I)cc(I)cc1I [Compound 1A-7-3]
Uptake amount [2]: 41.8 × 10^−3 nmol/μg protein

amount of the unchanged substance after 30 minutes based on the amount immediately after the addition to S9 Mix (100%) (S9 degradation test): 1A-7-5: 11%
Compound: O=C(CCCCCCCCCCOc1c(I)cc(I)cc1I)OCC(COC(=O)CCCCCCCCCCOc1c(I)cc(I)cc1I)OCCO [Compound 1A-7-5]
Uptake amount [2]: 36.1 × 10^−3 nmol/μg protein

Compound: C[N+](C)(C)CCOP(=O)([O-])OC(COC(=O)CCCCCCCCCCOc1c(I)cc(I)cc1I)COC(=O)CCCCCCCCCCOc1c(I)cc(I)cc1I [Compound 1B-1-3]
MTD (ICR male mice; [4]): 2000 mg/kg
amount of the unchanged substance after 30 minutes based on the amount immediately after the addition to S9 Mix (100%) (S9 degradation test): 1B-1-3: 4%
X-ray radiography images of arteriosclerotic lesions ([3]; one minute after the administration): clearly contrasted images of arteriosclerotic lesions were obtained
Neurotoxicity (Wistar rats; rat, in vivo): no neurotoxicity was observed
Uptake amount [2]: 59.8 × 10^−3 nmol/μg protein
